Test results: patent publication US10610515B2, “Composition including indoprofen and use thereof” (Samsung Electronics Co., Ltd., priority 2015, dated 2020)

Columns and labels:
[1] = tested on: mouse; conditions: cited from earlier work
[2] = tested on: human PGC-1α promoter; assay: PGC-1α promoter luciferase reporter screening in C2C12-PGC-1α reporter cell line; assay type: cell-based, mouse; conditions: 10 μM, 48 hours, C2C12-PGC-1α reporter cells, vs DMSO control
Protocol: To screen a compound activating PGC-1α gene expression in C2C12 myoblast cells, a PGC-1α reporter-expressing C2C12 cell line (hereinafter, referred to as ‘PGC-1α reporter cell line’ or ‘C2C12-PGC-1α cell line) was established. A vector expressing luciferase and dscGFP (destabilized Green Fluorescent Protein) under a human PGC-1α promoter having a length of 1 kb was prepared, and this vector was inserted into lentivirus to transfect C2C12 cells. To select a cell line that genetically stably expressed the vector, fluorescence emitted from green fluorescent protein (GFP) included in the vector was monitored. 5 μg/ml of puromycin, a selection marker for the vector, was added to a cell culture medium, and a cell line expressing PGC-1α reporter was selected. […] The expression level is measured by luminescence after addition of a luciferase substrate, thereby determining activation or inhibition of PGC-1α transcription by the compound.
The C2C12-PGC-1α reporter cell line prepared in Section 1 was used to screen a PGC-1α expression regulator from 2320 compounds provided by Korea Chemical Bank. […] 48 hours later, luminescence by luciferase was measured. […] Then, luminescence is measured. The measured values were normalized to each well and plate, and a value measured in a well treated with a solvent of the compound, DMSO, is used as a control group to express the value as a relative ratio.

[3] = tested on: C2C12 myoblasts; assay: Immunoblot of PGC-1α, differentiation markers and mitochondrial protein in indoprofen-treated myoblasts; assay type: cell-based
Protocol: The effect of indoprofen on the differentiation of C2C12 myoblasts into muscle cells was analyzed. Dulbecco's Modified Eagle Medium (DMEM) supplemented with 15% fetal bovine serum was used as a growth medium for the culture of C2C12 myoblasts, and DMEM supplemented with 2% horse serum was used as a differentiation medium for differentiation into muscle cells. To induce differentiation of C2C12 myoblasts into muscle cells, 10 μM or 100 μM indoprofen dissolved in DMSO was added to the experimental groups, and DMSO alone was added to the control group. The cells were cultured for 48 hours to induce differentiation, and then a RIPA buffer (50 mM Tris-HCl, pH 7.5, 150 mM NaCl, 1% Triton X100, 0.1% SDS, 2 mM EDTA, 0.5% sodium deoxycholate, Proteinase Inhibitor) was added to the harvested cells to allow lysis for 30 minutes, followed by centrifugation at 13,000 rpm for 30 minutes. The amount of protein in the cell lysis sample was quantified and an equal amount of protein was subjected to 7% or 15% SDS-PAGE. The protein was transferred onto a PVDF membrane, and then incubated in a blocking buffer containing 5% skim milk for 1 hour. Primary antibodies specific to individual proteins, diluted in 5% BSA, are reacted with the membrane at 4° C. for 12 hours, and then the membrane was washed with a wash buffer for 5 minutes three times. Secondary antibodies were diluted with the blocking buffer and allowed to react with the membrane at room temperature for 1 hour. Thereafter, the membrane was washed with the wash buffer for 5 minutes three times, and then exposed to X-ray film using an ECL reagent (Roche) to confirm protein expression levels.

[4] = tested on: C2C12 myoblasts; assay: Differentiation of indoprofen-treated myoblasts (MHC antibody fluorescence staining, DAPI); assay type: cell-based; conditions: 10 μM or 100 μM, differentiation 3 days, vs DMSO control (FIG. 2)
Protocol: C2C12 myoblasts were treated with 10 μM or 100 μM indoprofen and allowed to differentiate for 3 days. A control group was treated with DMSO alone. Fluorescence staining of C2C12 myotubes was performed using MHC antibody. The number of nuclei within one myotube was counted by DAPI staining. C2C12 cells were differentiated in DMED supplemented with 2% horse serum for 72 hours. The cells were washed with 1×PBS, and then fixed in 4% paraformaldehyde at room temperature for 15 minutes, followed by washing with 1×PBS three times. The cells were reacted with a permeabilizing buffer supplemented with 0.2% Triton-X for 10 minutes, and then washed with 1×PBS three times, followed by blocking using 5% fetal bovine serum at room temperature for 1 hour. A primary antibody, anti-MHC, was diluted with 5% goat serum at a ratio of 1:500 and allowed to react at 4° C. for 12 hours, followed by washing with 1×PBS three times. A secondary antibody, anti-mouse IgG-HRP 594 (Invitrogen) was diluted with 5% goat serum at a ratio of 1:500 and allowed to react at 4° C. for 1 hour, followed by washing with 1×PBS three times. DAPI is diluted with 1×PBS at a ratio of 1:10000 and allowed to react for 1 minute, followed by washing with 1×PBS and fluorescence microscopy.

[5] = tested on: C57BL/6 female mice; assay: Immunoblotting of tibialis anterior muscles of mice administered with indoprofen; assay type: in vivo, mouse; conditions: 1.5 mg/kg orally twice a day, 2 weeks, 10 week-old mice, vs PBS control (FIG. 3A)
Protocol: (§1) 10 week-old C57BL/6 female mice were bred at a temperature of 22±2° C., humidity of 55±5%, and a light-dark cycle of 12:12 hours. Mice were orally administered 1.5 mg/kg of indoprofen in 100 μl of PBS twice a day. A control group was orally administered with 100 μl of PBS twice a day. The mice were allowed free access to drinking water. Skeletal muscles were separated from the mice fed with indoprofen for 2 weeks, and subjected to immunoblot analysis.

[6] = tested on: C57BL/6 female mice; assay: Observation of lower limb muscles and heart of mice administered with indoprofen; assay type: in vivo, mouse; conditions: 1.5 mg/kg orally twice a day
Protocol: as §1, with “analysis. To evaluate functional consequence of PGC-1α increased by indoprofen treatment of skeletal muscle, lower limb muscles and organs of mice fed with indoprofen for 2 weeks were separated and analyzed.” for “analysis.”

[7] = tested on: C57BL/6 female mice; assay: Immunohistochemistry of 2a/2b type muscle fiber in extensor digitorum longus muscles of indoprofen-treated mice; assay type: in vivo, mouse; conditions: oral, 2 weeks
Protocol: 10 week-old C57BL/6 female mice were bred at a temperature of 22±2° C., humidity of 55±5%, and a light-dark cycle of 12:12 hours. Mice were orally administered 1.5 mg/kg of indoprofen in 100 μl of PBS twice a day. A control group was orally administered with 100 μl of PBS twice a day. The mice were allowed free access to drinking water. Skeletal muscles were separated from the mice fed with indoprofen for 2 weeks, and subjected to immunoblot analysis. To examine distribution of 2a type muscle fiber and 2b type muscle fiber, extensor digitorum longus muscles of mice administered with indoprofen for 2 weeks were subjected to immunohistochemistry. 2a type muscle fiber is an oxidative muscle fiber type, and there are two types: aerobic, that is, oxygen-dependent energy source and anaerobic, that is, oxygen-independent energy source. 2b type muscle fiber is a glycolytic muscle fiber type, and includes only anaerobic energy source. Frozen sections stored in a deep freezer of −80° C. were washed with 1×PBS twice, and fixed with 4% paraformaldehyde at room temperature for 15 minutes, and then washed with 1×PBS twice. The tissue and a permeabilization buffer (0.2% Triton-X/PBS) were reacted at room temperature for 30 minutes, and washed with 1×PBS twice. […] After sealing, a fluorescence microscope (Nikon, body: Ti-u, camera: DS-RI1, program: NIS-elements BR 3.1) was used for analysis.

[8] = tested on: C57BL/6 female mice; assay: SDH and NADPH staining of extensor digitorum longus muscle of indoprofen-administered mice; assay type: in vivo, mouse; conditions: oral, 2 weeks, 10 week-old mice
Protocol: 10 week-old C57BL/6 female mice were bred at a temperature of 22±2° C., humidity of 55±5%, and a light-dark cycle of 12:12 hours. Mice were orally administered 1.5 mg/kg of indoprofen in 100 μl of PBS twice a day. A control group was orally administered with 100 μl of PBS twice a day. The mice were allowed free access to drinking water. Skeletal muscles were separated from the mice fed with indoprofen for 2 weeks, and subjected to immunoblot analysis. Staining of succinic dehydrogenase (SDH) and NADPH in the extensor digitorum longus muscle of a mouse administered with indoprofen for 2 weeks was performed. This staining method is a method of analyzing mitochondrial activity by measuring activities of SDH and NADPH which are enzymes involved in the electron transport chain of mitochondria. Staining degree of SDH and NADPH represents a content of oxidative muscle fiber. Immediately after separation, extensor digitorum longus muscles were fixed in OCT compound and frozen using liquid nitrogen, and then sectioned to a thickness of 7 μm with a cryo-cut freezing microtome. After SDH staining, the frozen tissue sections were reacted in 0.2 M phosphate buffer (pH 7.4) containing SDH at 37° C. for 10 minutes, washed with distilled water, and then sealed, followed by observation. […]

[9] = tested on: 25-month-old female mice; assay: SDH and NADPH staining of extensor digitorum longus muscle of indoprofen-administered old mice; assay type: in vivo, mouse; conditions: old (25-month-old) mice, oral in corn oil, 4 weeks
Protocol: Immediately after separation, extensor digitorum longus muscles were fixed in OCT compound and frozen using liquid nitrogen, and then sectioned to a thickness of 7 μm with a cryo-cut freezing microtome. After SDH staining, the frozen tissue sections were reacted in 0.2 M phosphate buffer (pH 7.4) containing SDH at 37° C. for 10 minutes, washed with distilled water, and then sealed, followed by observation. For NADPH staining, the frozen tissue sections were reacted in 3.5 mM phosphate buffer (pH 7.4) containing 0.9 mM NADH, and 1.5 mM nitro blue tetrazolium at 37° C. for 30 minutes, washed with distilled water, and then sealed, followed by observation.
25-month-old female mice (weighing 30 g) were orally administered with indoprofen mixed with corn oil as an experimental group or corn oil only as a control group for 4 weeks. […] Staining of SDH and NADPH in extensor digitorum longus muscles of the old mice orally administered with indoprofen for 4 weeks was performed in the same manner as in 4 of Example 3.

[10] = tested on: 25-month-old female mice; assay: Weighing lower limb muscles of old mice administered with indoprofen; assay type: in vivo, mouse; conditions: old (25-month-old) mice, fed 4 weeks (FIG. 4C)
Description: To analyze changes in the muscle weight of old mouse by administration of indoprofen, lower limb muscles were separated from 25-month-old female mice (weighing 30 g) fed with indoprofen for 4 weeks.

[11] = 10 μM or 100 μM, 48 hours differentiation, Western blot, vs DMSO control (FIG. 1)

SMILES: CC(=O)Oc1ccccc1C(=O)O [aspirin]
- ID50 ([1]; for reference): 250 mg/kg

SMILES: CC(C(=O)O)c1ccc(N2Cc3ccccc3C2=O)cc1 (stereo not shown) [indoprofen, 2-[4-(1-oxo-1,3-dihydro-2H-isoindol-2-yl)phenyl]propionic acid]
- PGC-1α promoter activity (luciferase luminescence, relative ratio to DMSO control) [2]: greatly increased
- expression of PGC-1α [3, 11]: greatly increased
- expression of mitochondrial protein cytochrome C [3, 11]: greatly increased
- expression of muscle differentiation marker MHC [3, 11]: greatly increased
- expression of muscle differentiation marker myogenin [3, 11]: greatly increased
- expression of myoglobin [3, 11]: greatly increased
- concentration of optimal activity ([3]; C2C12 myoblasts, protein expression (FIG. 1)): 100 µM
- myotube formation and fusion of myoblasts [4]: increased
- percentage of the nuclei labeled with MHC antibody [4]: significantly increased
- expression of PGC-1α in tibialis anterior muscle [5]: increased
- expression of myoglobin in tibialis anterior muscle [5]: increased
- heart size ([6]; 2 weeks (FIG. 3B (C))): no change
- appearance of quadriceps muscle and gastrocnemius muscle (white vs red muscle) ([6]; 2 weeks, vs control group (FIG. 3B)): converted to red muscles
- number of oxidative 2a type muscle fiber in extensor digitorum longus muscle ([7]; anti-Myh2a antibody, vs non-treated control (FIG. 3C)): increased
- number of glycolytic 2b type muscle fiber in extensor digitorum longus muscle ([7]; anti-Myh2b antibody, vs non-treated control (FIG. 3D)): decreased
- percentage of muscle fiber having increased SDH activity in extensor digitorum longus muscle ([8]; vs control group (FIG. 3E)): increased
- percentage of muscle fiber having increased NADPH activity in extensor digitorum longus muscle ([8]; vs control group (FIG. 3F)): increased
- percentage of muscle fiber having increased SDH activity in extensor digitorum longus muscle ([9]; vs corn oil control (FIG. 4A)): increased
- percentage of muscle fiber having increased NADPH activity in extensor digitorum longus muscle ([9]; vs corn oil control (FIG. 4B)): increased
- weight of lower limb muscle (Sol, Gas, EDL, TA) [10]: increases
- lethal dose (LD)-50 for 50% mouse mortality ([1]; mouse): 700 mg per mouse body weight (kg)
